In the supplement of paper PMC8671470:

Tests used:
Settings in all cases: 72 h
HL-60 [1] = experiment: cell viability (% survival relative to DMSO control); higher = less cytotoxic
How it was run: (§1)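 Area under the curve, where listed, was derived from four-parameter log-logistic fits with drc and PharmacoGx. These fits used CellTiter-Glo viability from HL-60 cells in RPMI 1640 with 10% FBS, normalised to DMSO wells and wells holding 10 μM proteasome inhibitor. The full library was rescreened on 384-well plates in duplicate at five tenfold concentrations, 1–10,000 nM, with DMSO or 100 nM of one of three metabolic inhibitors, for 72 h at 37 °C, 5% CO2.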

THP-1 = experiment: cell viability (% survival relative to DMSO control, bortezomib = 0%); higher = less cytotoxic
How it was run: (§2)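 Reported values are percent survival from duplicate wells, averaged. Fifteen myeloid leukaemia cell lines were treated in 384-well plates with compounds at 1, 10, 100, 1000 or 10000 nM for 72 h at 37 °C in 5% CO2. Signals from CellTiter-Glo luminescence were scaled with vehicle as 100% and a 10 µM positive control as 0%.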

NOMO-1 = experiment: as above
How it was run: as §2

SHI-1 = experiment: as above
How it was run: as §2

K-562 = experiment: as above
How it was run: as §2

LAMA-84 = experiment: as above
How it was run: as §2

BV-173 = experiment: as above
How it was run: as §2

HEL = experiment: as above
How it was run: as §2

HL-60 [2] = experiment: as above
How it was run: as §2

ML-2 = experiment: as above
How it was run: as §2

KCL-22 = experiment: as above
How it was run: as §2

KG-1 = experiment: as above
How it was run: as §2

MOLM-13 = experiment: as above
How it was run: as §2

KU-812 = experiment: as above
How it was run: as §2

MV4-11 [3] = experiment: as above
How it was run: as §2

Mono-Mac-6 = experiment: as above
How it was run: as §2

HL-60 [4] = experiment: area under dose-response curve (viability, 1 nM-10 uM) (fraction (0-1)); higher = more sensitive
How it was run: as §1

MV4-11 [5] = test system: MV4-11
How it was run: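 In 384-well plates holding acoustically pre-printed compounds at five tenfold doses from 1 to 10,000 nM, in duplicate, fifteen myeloid leukaemia cell lines were grown in RPMI 1640 for 72 h at 37 °C with 5% CO2. Luminescent ATP viability was scaled between vehicle and a positive control at 10 µM. The IC50 was then taken from log-logistic dose–response fits with four parameters.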

C=C1C(=O)O[C@H](CCCCCCCC)[C@H]1C(=O)O [C75]
cell viability [%], HL-60 [1]
Settings | 0.001 µM | 0.01 µM | 0.1 µM | 1 µM | 10 µM
co-treatment: AZD3965 100 nM | 108 | 91.5 | 107 | 97.8 | 102
co-treatment: DMSO vehicle | 105 | 99.5 | 101.8 | 102 | 102
co-treatment: GSK2194069 100 nM | 96 | 88.2 | 102 | 100 | 111
co-treatment: pictilisib 100 nM | 103 | 90.9 | 105 | 103 | 98.9

Settings | area under dose-response curve, co-treatment: AZD3965 100 nM | area under dose-response curve, co-treatment: DMSO vehicle | area under dose-response curve, co-treatment: GSK2194069 100 nM | area under dose-response curve, co-treatment: pictilisib 100 nM | cell viability, 1 nM [%] | cell viability, 10 nM [%] | cell viability, 100 nM [%] | cell viability, 1000 nM [%] | cell viability, 10000 nM [%]
BV-173 | – | – | – | – | 106 | 94 | 109 | 107 | 105
HEL | – | – | – | – | 101 | 95.7 | 105 | 111 | 121
HL-60 [2] | – | – | – | – | 89.1 | 80.8 | 106 | 86 | 120
HL-60 [4] | < 0.0301 | < 0.0301 | < 0.0301 | < 0.0301 | – | – | – | – | –
K-562 | – | – | – | – | 107 | 98.3 | 101 | 108 | 111
KCL-22 | – | – | – | – | 112 | 86.8 | 108 | 110 | 134
KG-1 | – | – | – | – | 102 | 81.1 | 112 | 115 | 114
KU-812 | – | – | – | – | 95 | 97.6 | 105 | 102 | 106
LAMA-84 | – | – | – | – | 92.2 | 102 | 101 | 104 | 106
ML-2 | – | – | – | – | 115 | 90.1 | 108 | 110 | 112
MOLM-13 | – | – | – | – | 102 | 95.2 | 106 | 99.3 | 137
MV4-11 [3] | – | – | – | – | 106 | 98.1 | 103 | 85.9 | 116
Mono-Mac-6 | – | – | – | – | 98.1 | 99.9 | 103 | 94.4 | 98.9
NOMO-1 | – | – | – | – | 108 | 99.7 | 113 | 100 | 109
SHI-1 | – | – | – | – | 105 | 98.5 | 108 | 100 | 100
THP-1 | – | – | – | – | 111 | 94.7 | 111 | 108 | 102

Settings | IC50 (cell viability) [µM]
MV4-11 [5] | > 10

O=C1N[C@@H]2[C@@H](O)[C@@H](O)[C@H](O)[C@@H](CO)N2C1=O [Kifunensine]
cell viability [%], HL-60 [1]
Settings | 0.001 µM | 0.01 µM | 0.1 µM | 1 µM | 10 µM
co-treatment: AZD3965 100 nM | 93.1 | 81.8 | 101 | 99.3 | 108
co-treatment: DMSO vehicle | 96.82 | 99.24 | 103 | 101 | 108
co-treatment: GSK2194069 100 nM | 95.7 | 79.8 | 101 | 91.23 | 91.9
co-treatment: pictilisib 100 nM | 85.7 | 112 | 95.7 | 104 | 111.3

Settings | area under dose-response curve, co-treatment: AZD3965 100 nM | area under dose-response curve, co-treatment: DMSO vehicle | area under dose-response curve, co-treatment: GSK2194069 100 nM | area under dose-response curve, co-treatment: pictilisib 100 nM | cell viability, 1 nM [%] | cell viability, 10 nM [%] | cell viability, 100 nM [%] | cell viability, 1000 nM [%] | cell viability, 10000 nM [%]
BV-173 | – | – | – | – | 95 | 106 | 114 | 86.7 | 90.5
HEL | – | – | – | – | 99.6 | 105 | 125 | 87.8 | 109
HL-60 [2] | – | – | – | – | 102 | 90.6 | 120 | 120 | 144
HL-60 [4] | < 0.0301 | < 0.0301 | < 0.0301 | < 0.0301 | – | – | – | – | –
K-562 | – | – | – | – | 93.2 | 102 | 99.3 | 87.6 | 107
KCL-22 | – | – | – | – | 107 | 104 | 102 | 89 | 101
KG-1 | – | – | – | – | 96.1 | 93.2 | 112 | 88.6 | 85.6
KU-812 | – | – | – | – | 92.5 | 98.4 | 106 | 83.4 | 96.2
LAMA-84 | – | – | – | – | 103 | 98.6 | 114 | 84.4 | 107
ML-2 | – | – | – | – | 96.5 | 95.4 | 116 | 95.7 | 90.9
MOLM-13 | – | – | – | – | 76.3 | 105 | 117 | 81.3 | 130
MV4-11 [3] | – | – | – | – | 96.4 | 96.3 | 103 | 82.9 | 72.1
Mono-Mac-6 | – | – | – | – | 91.8 | 102 | 107 | 88.7 | 92.4
NOMO-1 | – | – | – | – | 103 | 102 | 110 | 88.7 | 100
SHI-1 | – | – | – | – | 96.9 | 99.9 | 105 | 107 | 136
THP-1 | – | – | – | – | 98.6 | 95.2 | 97.7 | 89 | 104

Settings | IC50 (cell viability) [µM]
MV4-11 [5] | > 10
